In PubChem BioAssay (NCI):
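Cultured in 96-well plates, cells were exposed to test compound for 48 hours across five concentrations. Here, GI50 denotes the concentration required for 50% inhibition of growth. TGI is the concentration that stops growth completely.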 Where a SMILES comes first, the peptide text is derived from it. The star is where a group is joined. Boc = CC(C)(C)OC(=O)*

How the values were obtained:
Experiment in all cases: NCI-60 cell line screen, 48 h
EKVX NSCLC = system: EKVX NSCLC
NCI-H226 lung = system: NCI-H226 lung
NCI/ADR-RES ovarian = system: NCI/ADR-RES ovarian
MDA-N = system: MDA-N
BT-549 breast = system: BT-549 breast
SN12C renal = system: SN12C renal
PC-3 prostate = system: PC-3 prostate
SF-295 CNS = system: SF-295 CNS
K-562 leukemia = system: K-562 leukemia
CCRF-CEM leukemia = system: CCRF-CEM leukemia

SMILES	TGI (EKVX NSCLC) [µM]	TGI (NCI-H226 lung) [µM]	TGI (NCI/ADR-RES ovarian) [µM]	TGI (MDA-N) [µM]	TGI (BT-549 breast) [µM]	TGI (SN12C renal) [µM]	TGI (PC-3 prostate) [µM]	TGI (SF-295 CNS) [µM]	TGI (K-562 leukemia) [µM]	TGI (CCRF-CEM leukemia) [µM]	GI50 (EKVX NSCLC) [µM]	GI50 (NCI/ADR-RES ovarian) [µM]	GI50 (BT-549 breast) [µM]	GI50 (SN12C renal) [µM]	GI50 (PC-3 prostate) [µM]	GI50 (CCRF-CEM leukemia) [µM]	GI50 (SF-295 CNS) [µM]	GI50 (K-562 leukemia) [µM]
O=C(NNc1cn[nH]c(=O)c1Cl)/C(=C/c1ccc2c(c1)OCO2)NC(=O)c1ccccc1	> 100	> 100	> 100	> 100	49.1	> 100	> 100	> 100	–	–	–	–	–	–	–	–	–	–
COC(=O)C(Cc1c[nH]c2ccccc12)NC(=O)C(Cc1c[nH]c2ccccc12)NC(=O)C(Cc1c[nH]c2ccccc12)NC(=O)C(Cc1c[nH]c2ccccc12)NC(=O)OC(C)(C)C (stereo not given) (Boc-WWWW-OMe; configuration not given here)	–	> 100	–	55.3	70.2	> 100	96.5	–	> 100	34.3	–	–	–	–	–	–	–	–
CCOC(=O)C(NC(=O)CC(C)C)(Nc1ccc(C(F)(F)F)cc1)C(F)(F)F (stereo not given)	> 100	> 100	> 100	> 100	–	> 100	> 100	> 100	> 100	> 100	–	–	–	–	–	–	–	–
Cc1ccc(S(=O)(=O)NC(=O)NCCC(=O)O)cc1	–	–	–	> 100	> 100	> 100	> 100	> 100	> 100	> 100	–	–	–	–	–	–	–	–
NC(c1ccccc1)(C(F)(F)F)P1(=O)OC(=O)c2ccccc2O1 (stereo not given)	> 100	> 100	> 100	> 100	> 100	> 100	> 100	> 100	> 100	–	–	–	–	–	–	–	–	–
O=C1CCCC2=C1C(c1ccc3c(c1)OCO3)Nc1ccc3ccccc3c12 (stereo not given)	> 100	> 100	> 100	> 100	> 100	> 100	–	> 100	–	> 100	–	–	–	–	–	–	–	–
OCC(O)C1OC2CC1Nc1ccccc1N2 (stereo not given)	> 100	> 100	> 100	–	–	> 100	> 100	> 100	> 100	> 100	–	–	–	–	–	–	–	–
CC(=O)OCc1cc(=O)n(C)c2c3c4c(cc12)c(C)cc(=O)n4CO3	11.2	5.5	10.9	–	–	30.8	–	6.49	27.7	12.7	–	–	–	–	–	–	–	–
O=c1[nH]c(=O)n(COCc2ccccc2)c2ccc([N+](=O)[O-])cc12	> 100	> 100	> 100	> 100	–	> 100	> 100	> 100	> 100	> 100	–	–	–	–	–	–	–	–
N/N=C1/C(=N/O)CCc2nonc21	> 100	> 100	> 100	> 100	–	> 100	> 100	> 100	> 100	> 100	–	–	–	–	–	–	–	–
O=C(CN1CCCCC1)c1ccc2c(c1)Sc1ccccc1O2	36.1	29	35	34.5	–	42.7	24.4	30.9	> 100	34.4	–	–	–	–	–	–	–	–
CC(=NCCN(CCN=C(C)c1c(O)cc(C)oc1=O)CCN=C(C)c1c(O)cc(C)oc1=O)c1c(O)cc(C)oc1=O	> 100	–	> 100	> 100	–	> 100	> 100	> 100	> 100	> 100	–	–	–	–	–	–	–	–
CSc1nc(NC2OCC(O)C(O)C2O)c(N)c(=O)n1C (stereo not given)	> 100	> 100	> 100	–	–	> 100	–	> 100	> 100	> 100	–	–	–	–	–	–	–	–
CC(=Nc1c2ccccc2nc2ccccc12)N(C)C	> 100	45.7	54.8	90.3	90.7	–	46.8	> 100	25.4	> 100	–	–	–	–	–	–	–	–
Fc1ccc(C2CC(c3cccc(Nc4ccncc4)c3)=NN2c2cc(Cl)cc(Cl)c2)cc1 (stereo not given)	3.38	–	3.34	–	3.63	3.16	3.14	3.21	–	> 100	1.71	1.71	1.88	1.69	1.55	2.9	1.77	–
Nc1ccccc1NC(=O)CCCCCCC(=O)Nc1ccc2c(c1)/C(=C/c1ccc[nH]1)C(=O)N2	–	–	> 100	–	> 100	> 100	> 100	> 100	> 100	> 100	–	> 100	0.391	4.68	6.92	0.419	> 100	8.75
COc1ccc(/C=C(\C(=C/c2ccc(OC)cc2)[N+](=O)[O-])[N+](=O)[O-])cc1	29.8	33	7.94	8.89	21.4	10.1	> 39.7	30.2	> 34.5	–	–	–	–	–	–	–	–	–
O=C1CCC2(CC1CCSc1ccccc1)OCCO2 (stereo not given)	> 100	> 100	> 100	> 100	–	–	> 100	> 100	> 100	> 100	–	–	–	–	–	–	–	–
O=c1[nH]c(=O)n(COCc2ccccc2)c2ccc(Br)cc12	> 100	> 100	> 100	> 100	–	> 100	–	> 100	> 100	> 100	–	–	–	–	–	–	–	–
COc1ccc(-c2nc(-c3cc4ccccc4oc3=O)cs2)cc1	> 100	> 100	> 100	–	> 100	> 100	> 100	> 100	> 100	> 100	–	–	–	–	–	–	–	–
O=C(NC1(C(=O)NNc2nnc(-c3ccccc3)c(-c3ccccc3)n2)C(c2ccccc2)C(c2ccccc2)=NN1c1ccccc1)c1ccccc1 (stereo not given)	> 100	> 100	> 100	–	> 100	–	> 100	> 100	–	–	–	–	–	–	–	–	–	–
CCOP(=O)(OCC)/C(=C\N1C(=O)CC(=O)NC1=S)C(=O)OC	> 100	> 100	> 100	> 100	> 100	> 100	–	> 100	–	–	–	–	–	–	–	–	–	–
COc1ccc(Oc2nc3ccc(C(F)(F)F)cc3nc2-c2ccccc2)cc1	> 100	> 100	–	–	–	> 100	> 100	> 100	> 100	> 100	–	–	–	–	–	–	–	–
O=C(NCCCCNCCCNC(=O)c1ccccc1)c1ccccc1	> 100	> 100	> 100	–	> 100	> 100	> 100	> 100	> 100	> 100	–	–	–	–	–	–	–	–
